Measurements published in patent publication US20030232862A1 (priority 2002, published 2003).
Where two headings read alike, the source gives them in different places. Blank lines part the entries; values can stand above or below the compound they belong to.

What was measured:
[1] = test system: premalignant lesions in mouse mammary gland organ culture; experiment: Mammary gland organ culture model; as to mammary gland organ culture: key: −: Not active; +: Slightly active; + +: Moderately active; + + +: Strongly active; + + + +: Highly active; format: cell-based; settings: for inhibition of formation of premalignant lesions: FIG. 17
From the text: Test compounds identified by the above methods can be tested for antineoplastic activity by their ability to inhibit the incidence of pre-neoplastic lesions in a mammary gland organ culture system. This mouse mammary gland organ culture technique has been successfully used by other investigators to study the effects of known antineoplastic agents such as certain NSAIDs, retinoids, tamoxifen, selenium, and certain natural products, and is useful for validation of the screening method of the present invention.
For example, female BALB/c mice can be treated with a combination of estradiol and progesterone daily, in order to prime the glands to be responsive to hormones in vitro. The animals are sacrificed, and thoracic mammary glands are excised aseptically and incubated for ten days in growth media supplemented with insulin, prolactin, hydrocortisone, and aldosterone. DMBA (7,12-dimethylbenz(a)anthracene) is added to medium to induce the formation of premalignant lesions. Fully developed glands are then deprived of prolactin, hydrocortisone, and aldosterone, resulting in the regression of the glands but not the pre-malignant lesions.
The test compound is dissolved in DMSO and added to the culture media for the duration of the culture period. At the end of the culture period, the glands are fixed in 10% formalin, stained with alum carmine, and mounted on glass slides. The incidence of forming mammary lesions is the ratio of the glands with mammary lesions to […]. The incidence of mammary lesions in test compound treated glands is compared with that of the untreated glands.
The extent of the area occupied by the mammary lesions can be quantitated by projecting an image of the gland onto a digitation pad. The area covered by the gland is traced on the pad and considered as 100% of the area. The space covered by each of the non-regressed structures is also outlined on the digitization pad and quantitated by the computer.
Mammary gland organ culture experiment were performed as previously described (Mehta and Moon, Cancer Research, 46: 5832-5835, 1986).

[2] = target: T1, cGMP binding sites of GST-cGB-PDE5 fusion protein (Homo sapiens, UniProt O76074); experiment: cGMP binding assay with GST-cGB-PDE5 fusion protein; settings: for competition with cGMP binding at high concentration: 100 μM, cGMP 2 μM
T1 construct: made in house; host or cells: E. coli BL21 (DE3)

[3] = target: cGMP PDE purified from human colon HT-29 cultured tumor cells (Homo sapiens, UniProt O76074); experiment: cGMP PDE inhibition assay; format: biochemical; settings: for PDE Inhibition: Table 9 qualitative profile
[4] = test system: HT-29 cells; experiment: Growth inhibition of HT-29 cells (SRB assay; trypan blue counting in time course); format: cell-based, human; settings: for Growth Inhibition: Table 9 qualitative profile
[5] = target: T2, PDE Peak A (PDE5) from SW480 cells (Homo sapiens, UniProt O76074); experiment: cGMP hydrolysis by PDE Peak A (PDE5) isolated from SW480 cells; format: biochemical
T2 construct: To isolate the novel phosphodiesterase from SW480, approximately four hundred million SW480 cells were grown to confluence; endogenous in cells; host or cells: SW480 colon cancer cells; 105,000 g supernatant, DEAE-Trisacryl M fraction

[6] = target: T3, Cyclooxygenase (COX) (Ovis aries, UniProt P05979); experiment: COX inhibition assay, single dose screen (Table 2); format: biochemical; settings: for COX Inhibition: Table 9 qualitative profile
T3 sequence (P05979 25-600): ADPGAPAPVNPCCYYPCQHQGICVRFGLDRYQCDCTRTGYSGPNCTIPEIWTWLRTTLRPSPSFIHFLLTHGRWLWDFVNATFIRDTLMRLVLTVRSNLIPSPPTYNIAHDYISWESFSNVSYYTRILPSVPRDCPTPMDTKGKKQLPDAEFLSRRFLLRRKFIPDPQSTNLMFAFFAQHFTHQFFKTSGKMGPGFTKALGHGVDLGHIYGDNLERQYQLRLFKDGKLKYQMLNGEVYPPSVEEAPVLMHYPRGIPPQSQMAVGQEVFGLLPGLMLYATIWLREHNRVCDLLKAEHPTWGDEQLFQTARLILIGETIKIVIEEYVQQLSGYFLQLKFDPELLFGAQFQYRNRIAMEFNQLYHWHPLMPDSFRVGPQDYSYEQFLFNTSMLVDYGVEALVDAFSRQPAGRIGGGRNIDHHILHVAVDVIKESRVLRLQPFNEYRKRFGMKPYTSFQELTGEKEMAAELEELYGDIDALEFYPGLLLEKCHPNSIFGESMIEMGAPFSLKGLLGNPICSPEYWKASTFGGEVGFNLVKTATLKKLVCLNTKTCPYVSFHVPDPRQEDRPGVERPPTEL

[7] = test system: HT-29 colon adenocarcinoma cells; experiment: Apoptosis by DNA fragmentation assay in HT-29 cells; format: cell-based, human; settings: Table 9 qualitative profile; also: key: −: Not active; +: Slightly active; + +: Moderately active; + + +: Strongly active; + + + +: Highly active
[8] = test system: Peak B's (from SW480, HTB-26, and LnCAP); experiment: FPLC-isolated Peak B PDE activity from three neoplastic cell lines; format: biochemical
Experimental: The novel Peak B was also isolated from two other neoplastic cell lines, a breast cancer cell line, HTB-26, and a prostate cancer cell line, LnCAP, by a procedure similar to the one above used to isolate it from SW480. The protocol was modified in several respects. To provide even greater reproducibility to allow comparison of different cell lines, a Pharmacia AKTA FPLC was used to control sample loading and elution on an 18 mL DEAE TrisAcryl M column. SW840 was run by this same procedure multiple times to provide a reference of Peak B. 200-400 million cells of SW480 were used for the profiles. 70 million cells of LnCAP were used for a profile (see FIGS. 22 and 23), and in a separate experiment 32 million cells of HTB-26 were used for a profile (see FIGS. 20 and 21). After re-suspending cells in homogenization buffer, samples were manually homogenized. FPLC buffer A was 8 mM TRIS-acetate, 5 mM Mg acetate, 0.1 mM EDTA, pH 7.5 and buffer B was 8 mM TRIS-acetate, 5 mM Mg acetate, 0.1 mM EDTA, 1 M Na acetate, pH 7.5. Supernatants were loaded onto the column at 1 mL per minute, followed by a wash with 60 mL buffer A at 1 mL per minute. A gradient was run from 0-15% buffer B in 60 mL, 15-50% buffer B in 60 mL, and 50-100% buffer B in 16 mL. During the gradient 1.5 mL fractions were collected.

[9] = test system: SW-480 colon adenocarcinoma cells; experiment: Apoptosis fold induction protocol (DNA fragmentation, Table 4); settings: 100 μM; cell line not given

PDE Inhibition [3]: −
Compound: rac-(E)-1-(butan-1′,4′-olido)-[3′,4′:1,2]-6-fluoro-2-methyl-3-(p-methylsulfonylbenzylidene)-1S-indanyl-glutathione)
Growth Inhibition [4]: + +

competition with cGMP binding at high concentration [2]: partially compete
Compound: Nc1nc2c(nc(Br)n2[C@@H]2O[C@@H]3COP(=O)(O)O[C@H]3[C@H]2O)c(=O)[nH]1 [Example 8-bromo-cGMP]

competition with cGMP in binding of GST-cGB-PDE5 ([2]; 3H-cGMP 2 μM): did not compete
Compound: Nc1ccn([C@@H]2O[C@@H]3COP(=O)(O)O[C@H]3[C@H]2O)c(=O)n1 [cCMP]

competition with cGMP binding at high concentration [2]: partially compete
Compound: O=c1[nH]cnc2c1ncn2[C@@H]1O[C@@H]2COP(=O)(O)O[C@H]2[C@H]1O [Cyclic IMP]

PDE Inhibition [3]: −
Compound: CC1=C(CC(=O)N(C2CCCCC2)C2CCCCC2)c2cc(F)ccc2/C1=C\c1ccc(S(C)(=O)=O)cc1 [F, (Z)-5-Fluoro-2-methyl-1-(p-methylsulfonylbenzylidene)-3-indenylacetamide, N,N′-dicyclohexyl]
Growth Inhibition [4]: + +

competition with cGMP in binding of GST-cGB-PDE5 ([2]; 3H-cGMP 2 μM): did not compete
Compound: O=c1ccn([C@@H]2O[C@@H]3COP(=O)(O)O[C@H]3[C@H]2O)c(=O)[nH]1 [cUMP]

% Inhibition at 100 μM (cyclooxygenase) [6]: 94% | COX Inhibition [6]: + + +
Compound: Clc1cccc(Nc2nnc(-c3ccccc3)c3ccccc23)c1 [MY5445, 1-(3-chloroanilino)-4-phenyphthalazine, reference compound]
Apoptosis [7]: + + + | Growth Inhibition [4]: + + +

% Inhibition at 100 μM (cyclooxygenase) [6]: <25%
Compound: CC(=O)NC(CSC12CC(=O)OC1(C)/C(=C/c1ccc(S(C)(=O)=O)cc1)c1ccc(F)cc12)C(=O)O (racemic) [D, rac-(E)-1-(butan-1′,4′-olido)-[3′,4′:1,2]-6-fluoro-2-methyl-3-(p-methylsulfonylbenzylidene)-1S-indanyl-N-acetylcysteine]
% Inhibition at 100 μM (growth) [4]: 78% | Growth Inhibition [4]: + +

The remaining lines, values behind:

Compound: CC1=C(CC(=O)O)c2cc(F)ccc2/C1=C\c1ccc([S+](C)[O-])cc1 (centres unmarked) [sulindac, reference compound]
inhibition of formation of premalignant lesions [1]: effectively inhibit

Compound: CCCCOC1C2OP(=O)(O)OCC2OC1n1cnc2c(=O)[nH]c(N)nc21 (centres unmarked) [2′-O-butyl-cGMP]
competition with cGMP in binding of GST-cGB-PDE5 ([2]; 3H-cGMP 2 μM): did not compete

Compound: Nc1ncnc2c1ncn2[C@@H]1O[C@@H]2COP(=O)(O)O[C@H]2[C@H]1O [Cyclic AMP]
competition with cGMP in binding of GST-cGB-PDE5 [2]: did not compete

Compound: CC1=C(CC(=O)O)c2cc(F)ccc2/C1=C\c1ccc(Cl)cc1 [Compound C, (Z)-5-Fluoro-2-methyl-1-(p-chlorobenzylidene)-3-acetic acid]
% Inhibition at 10 μM (cGMP PDE) [3]: <25% | % Inhibition at 100 μM (growth) [4]: 80%

Compound: 5-fluoro-2-methyl-1-(p-methylsulfinylbenzylidene)-3-indenylacetic acid [Sulindac sulfide, reference compound]
competitive (with cGMP) inhibition/binding, Peak A [5]: competitively inhibited | % Inhibition at 100 μM (cyclooxygenase) [6]: 97% | COX Inhibition [6]: + + + + | % Inhibition at 10 μM (cGMP PDE) [3]: 97% | PDE Inhibition [3]: + + + | IC50 ([3]; read-out: IC50 for inhibition of cGMP PDE): 17 µM | Apoptosis [7]: + + + | inhibition of formation of premalignant lesions [1]: inactive

Compound: COc1ccc(C2CNC(=O)C2)cc1OC1CCCC1 (centres unmarked) [Rolipram]
inhibition of cAMP PDE activity in Peak B fractions [8]: inhibited most of the cAMP PDE activity

Compound: CCCc1nn(C)c2c(=O)[nH]c(-c3cc(S(=O)(=O)N4CCN(C)CC4)ccc3OCC)nc12 [Sildenafil, reference compound]
inhibition of activity of Peak A [5]: inhibited activity of Peak A

Compound: CCCCCC[C@@H]([C@@H](C)O)n1cnc2c(N)ncnc21 (racemic) [EHNA]
Fold induction at 100 μM (apoptosis) [9]: <2.0 fold

Compound: O=C([O-])C1CCN(c2nc(NCc3ccc4c(c3)OCO4)c3cc(Cl)ccc3n2)CC1.[Na+] [Example E4021, reference compound]
sensitivity of Peak B cGMP PDE activity ([8]; 100 nM, 0.25 μM cGMP): resistant | % Inhibition at 100 μM (growth) [4]: <50%

Compound: CCCCOC1C2OP(=O)(O)OCC2OC1n1cnc2c(N)ncnc21 (centres unmarked) [2′-O-butyl-cAMP]
competition with cGMP in binding of GST-cGB-PDE5 ([2]; 3H-cGMP 2 μM): did not compete

Compound: ribo-(E)-1-Triazolo-[2′,3′:1″,3″]-1-(butan-1′,4′-olido)-[3′,4′:1,2]-6-fluoro-2-methyl-3-(p-methylsulfonylbenzylidene)-indan [G]
PDE Inhibition [3]: − | Apoptosis [7]: + + | Growth Inhibition [4]: + + | Mammary Gland Organ Culture ([1]; Table 9 qualitative profile): + + +
